Measured values: patent publication US8193192B2, “Heterocyclic FXR binding compounds” (Phenex Pharmaceuticals AG, priority 2006, dated 2012)
Converted amounts (≈) assume the structure as drawn.

Experiments:
[1] = Plasma protein binding assay, filtration method; type: in vitro ADME; conditions: lithium-heparin plasma, mouse plasma, 37° C., one hour, read-out: Plasma protein binding (%) (±standard deviation) (converted)
Procedure: Plasma Protein Binding Assay
Plasma protein binding was determined using the filtration method:
Preparation of standards: working solutions were prepared for each calibration level by appropriate dilution of the corresponding stock solution. Calibration standards were prepared by spiking 147 μl PBS buffer with 3 μl of the corresponding working solution. Sample preparation: The sample and standard solution preparation was performed by mixing equal volumes of acetonitrile containing the internal standard (1 μM) with 75 μl sample, or 150 μl calibration standard solution, respectively. After vigorously shaking the samples were centrifuged (6000 g) for 5 minutes. Aliquots of the supernatants were subjected to LC-MS/MS analysis. Assay procedure: Compound stock solutions were diluted in acetonitrile to give a 50-fold concentrated working solution. The incubation solutions were prepared by adding 3 μl of a 50-fold concentrated working solution in acetonitrile to 147 μl of lithium-heparin plasma from mice giving an incubation concentration of 1 μM. […] The percentage of compound bound to plasma proteins (% PPB) was calculated using the following equation: PPB[%]=100−(concentrationcompound plasma filtrate/mean concentrationcompound filtrated plasma filtrate)×100.
Applying this protocol, plasmaprotein binding of examples and reference compounds was determined as listed below in Table 5.

[2] = Microsomal stability assay; type: in vitro ADME; conditions: pH 7.4; mouse liver microsomes, 37° C.
Procedure: Microsomal Stability Assay
In vitro assays were performed to evaluate the metabolic stability of test items in liver microsomes originating from mouse. Preparation of working standards of test items: Working solutions were prepared for each calibration level by appropriate dilution of the corresponding stock solution, depending on each compound's solubility in acetonitrile or acetonitrile/water. Calibration standards were prepared by spiking 196 μl standard matrix with 4 μl of the corresponding working solution. The standard matrix consists of 0.15 mg/ml of microsomal protein in phosphate buffer (100 mM pH 7.4), the final standard solutions contain 2% acetonitrile. The samples and standard solutions were extracted with ethyl acetate, isolation of the compounds was performed by addition of 600 μl ethyl acetate containing the internal standard (0.1 μM) to 200 μl sample and calibration standard. After vigorously shaking (10 minutes) and centrifugation (5000 g) the aqueous phase was separated by freezing in an acetone/dry ice bath and the organic phase is evaporated to dryness using a vacuum centrifuge. Samples were reconstituted in 200 μl acetonitrile/water mix (1:1 v/v) and subsequently subjected to LC-MS/MS. The incubation solution (180 μl) consisted of 90 μl of a microsomal suspension of 0.33 mg/ml of protein in phosphate buffer 100 mM pH 7.4 and 90 μl NADP-regenerating system. The reaction was initiated by the addition of 20 μl of test compound (in 20% acetonitrile) to the preincubated microsomes/buffer mix at 37° C. 200 μl samples were removed from the incubation after 0, 5, 10, and 30 minutes and processed for ethyl acetate extraction as described above. Negative controls using boiled microsomes (boiling water bath, 25 minutes) without regenerating system were run in parallel. The amount of compound in the samples is expressed as percentage of remaining compound compared to time point zero (=100%). These percentages were plotted against the corresponding time points. Intrinsic clearance (CLint) and half-life (t1/2) estimates were determined using the rate of parent disappearance and following formula (1) and (2). (1) CLint=(−k)×V×fu. (2) t1/2=ln 2/−k. Where CLint=intrinsic clearance [μl/min/mg protein], t1/2=half life [min], k=slope from the linear regression of log [test compound] versus time plot [1/min]. V=6666.7; fu=unbound fraction in the blood. Applying this protocol gave microsomal stabilities for examples and reference compounds as listed below in Table 6: […]

[3] = Aqueous solubility assay, Protocol B, shake-flask method; type: physicochemical; conditions: 10 mM PBS buffer with 1% MeOH, kinetic from dmso stock, 10 mM PBS buffer pH 7.4, 1% MeOH, room temperature, read-out: Aqueous solubility pH 7.4 (μM) (±standard deviation), shake-flask method
Procedure: Aqueous solubility of compounds was determined by nephelometry or by shake-flask method as follows:
Protocol B, Shake-Flask Method:
Sample preparation: Sample and standard solution preparation is performed by mixing equal volumes of acetonitrile containing the internal standard (1 μM final concentration) with sample and calibration standard solutions (100 μl). After vigorously shaking (10 seconds) the samples are centrifuged (6000 g) for 5 minutes at 20° C. Aliquots of the particle-free supernatants are transferred to 200 μl sample vials and subsequently subjected to LC-MS/MS analysis. Assay procedure: Test concentration was 100 μM in 10 mM PBS buffer pH 7.4 with a final MeOH concentration of 1%. The volume of the incubation solution was 500 μl. Depending on each compound's solubility in MeOH, the stock concentration and the incubation concentration was adapted. The test solutions in quadruplicates were shaken at 300 rpm over a 20 hours period at room temperature, followed by centrifugation at 20000 g for 30 minutes to separate the solid phase. 100 μl of particle free sample are added to 100 μl acetonitrile containing the internal standard. The aqueous solubility of the compounds was determined by measuring the concentration of the PBS buffer supernatant by HPLC-MS/MS. Aqueous solubilities of examples and reference compounds are listed below in Table 3.

SMILES	fraction unbound at 1 h, 1 µM [1]	half-life [2] [min]	microsomal CLint [2] [µL/min/mg]	solubility at 20 h [3] [µM]
Cc1cc(OCc2c(-c3c(Cl)cccc3Cl)noc2C(C)C)cnc1Oc1ccc(C(=O)O)cc1 [Example 3, 4-(5-((3-(2,6-Dichlorophenyl)-5-isopropylisoxazol-4-yl)methoxy)-3-methylpyridin-2-yloxy)benzoic acid]	0.021	30	153	188 (≈ 96.5 µg/mL)
CC(C)c1onc(-c2c(Cl)cccc2Cl)c1COc1ccc(Oc2ccc(C(=O)O)cc2)cc1 [Compound A, reference compound]	0.007	22	207	72.4 (≈ 36.1 µg/mL)
